Reference: patent publication US11524966B1 (Valo Early Discovery, Inc., priority 2017, dated 2022)

biological target: T1, USP28 (His-tagged USP28-FL-mammalian) (Homo sapiens, UniProt Q96RU2); experiment: Ubiquitin-Rhodamine 110 Assay for USP28 Activity, Example A-1(a); assay type: biochemical; settings: Ubiquitin-Rhodamine 110 assay, format Example A-1(a); read-out: USP28 A-1(a) IC50 range
T1 construct: Expression of USP28 (1-1077)-TEV-6*His (pTT5 vector); made in house; host or cells: Expi293f cells (pTT5 vector)
T1 sequence (Q96RU2 1-1077): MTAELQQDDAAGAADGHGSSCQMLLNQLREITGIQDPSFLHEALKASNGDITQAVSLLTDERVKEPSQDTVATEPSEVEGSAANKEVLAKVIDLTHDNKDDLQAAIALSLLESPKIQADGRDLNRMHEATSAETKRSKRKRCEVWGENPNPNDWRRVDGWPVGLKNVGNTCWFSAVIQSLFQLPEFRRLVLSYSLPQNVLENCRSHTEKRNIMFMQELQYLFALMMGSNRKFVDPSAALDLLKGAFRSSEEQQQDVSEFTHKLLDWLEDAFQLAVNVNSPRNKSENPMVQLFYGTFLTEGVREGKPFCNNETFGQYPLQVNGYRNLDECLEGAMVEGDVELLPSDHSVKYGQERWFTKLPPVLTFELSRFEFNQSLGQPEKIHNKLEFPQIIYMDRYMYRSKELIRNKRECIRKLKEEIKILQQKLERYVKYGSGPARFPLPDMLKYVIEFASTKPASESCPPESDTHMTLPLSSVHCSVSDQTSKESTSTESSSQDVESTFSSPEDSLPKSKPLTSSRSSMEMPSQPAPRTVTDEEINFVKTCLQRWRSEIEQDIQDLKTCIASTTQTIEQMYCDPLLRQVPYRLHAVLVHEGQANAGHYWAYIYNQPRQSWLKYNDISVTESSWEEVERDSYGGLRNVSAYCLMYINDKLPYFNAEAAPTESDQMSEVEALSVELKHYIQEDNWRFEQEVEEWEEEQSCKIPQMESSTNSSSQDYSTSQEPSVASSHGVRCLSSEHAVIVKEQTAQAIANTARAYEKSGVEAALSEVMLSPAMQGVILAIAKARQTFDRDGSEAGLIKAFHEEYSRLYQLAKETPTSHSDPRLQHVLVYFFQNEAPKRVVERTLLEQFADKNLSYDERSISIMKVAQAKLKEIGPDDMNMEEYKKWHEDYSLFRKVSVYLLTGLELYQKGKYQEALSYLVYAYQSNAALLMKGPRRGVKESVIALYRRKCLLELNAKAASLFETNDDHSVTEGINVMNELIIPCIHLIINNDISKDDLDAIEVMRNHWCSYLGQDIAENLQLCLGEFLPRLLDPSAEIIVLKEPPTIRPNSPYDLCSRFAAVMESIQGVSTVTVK
In short: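 Full-length His-tagged USP28 (1-1077, Expi293F-expressed; […]) was preincubated 30 min with compound (25 μM–1.3 nM, 10-point 3-fold) in 20 mM Tris-HCl pH 8.0, 3 mM BME, 0.03% BGG, 0.01% Triton X-100. Ub-Rh110 (25 nM) was then added for 45 min at room temperature, stopped with citric acid, and read by fluorescence (485/535 nm).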

Row | SMILES | IC50 [nM]
1 | Cc1ccc2c(N)c(C(=O)N[C@@H]3CCc4c(ccc(N5CC6CCC(C5)N6)c4C#N)C3)sc2n1 (single isomer, unassigned) [Example 14-1] | 1 to 50
2 | Cc1ccc2c(N)c(C(=O)N[C@H]3CCc4c(ccc(N5CC6CCC(C5)N6)c4C#N)C3)sc2n1 (single isomer, unassigned) [Example 14-2] | 50 to 200
3 | Cc1ccc2c(N)c(C(=O)N[C@@H]3CCc4cc(N5CC6CCC(C5)N6)c(C#N)cc4C3)sc2n1 (single isomer, unassigned) [Example 14-3] | 200 to 2000
4 | Cc1ccc2c(N)c(C(=O)N[C@H]3CCc4cc(N5CC6CCC(C5)N6)c(C#N)cc4C3)sc2n1 (single isomer, unassigned) [Example 14-4] | 1 to 50
5 | Cc1cnc2c(N)c(C(=O)N[C@@H]3CCc4c(ccc(N5CC6CCC(C5)N6)c4C#N)C3)sc2n1 (single isomer, unassigned) [Example 14-5] | 1 to 50
6 | Cc1cnc2c(N)c(C(=O)N[C@H]3CCc4c(ccc(N5CC6CCC(C5)N6)c4C#N)C3)sc2n1 (single isomer, unassigned) [Example 14-6] | 200 to 2000
7 | Cc1cnc2c(N)c(C(=O)N[C@@H]3CCc4cc(N5CC6CCC(C5)N6)c(C#N)cc4C3)sc2n1 (single isomer, unassigned) [Example 14-7] | 200 to 2000
8 | Cc1cnc2c(N)c(C(=O)N[C@H]3CCc4cc(N5CC6CCC(C5)N6)c(C#N)cc4C3)sc2n1 (single isomer, unassigned) [Example 14-8] | 1 to 50
